{
  "source": "patent US8193180B2",
  "about": "“N-amino tetrahydrothiazine derivatives, method of manufacture and use” (Women & Infants Hospital, priority 2007, dated 2012)",
  "key": {"[1]": {"test_system": "stage III ovarian cancer", "test": "Ovarian cancer treatment, patient case (Example 10)", "assay_type": "in vivo, human", "conditions": "10 mg/kg daily orally or IV for 48 days", "protocol": "A subject presents with recurrent/progressive stage III ovarian cancer refractory to all other treatments. The subject is treated daily with 10 mg/kg of N-(3-methyl-1,1-dioxo-1,4-thiazinan-4-yl)-1-[3-chloro, 5-bromo coumarin-2-carbonyl] orally or IV for 48 days."}, "[2]": {"test_system": "breast cancer", "test": "Breast cancer prophylaxis, patient case (Example 8)", "assay_type": "in vivo, human", "conditions": "5 mg/kg daily by tablets for 48 months, BRCA 1 and 2 markers", "protocol": "A subject presents normally, but has BRCA 1 and 2 markers as well as a family history of breast cancer. The subject is treated daily with 5 mg/kg of N-(3-methyl-1,1-dioxo-1,4-thiazinan-4-yl)-1-[5,6-dimethoxy coumarin-2-yl]methanimine by tablets for 48 months."}, "[3]": {"test_system": "Stage IV neuroblastoma", "test": "Treatment of neuroblastoma, patient case (Example 5)", "assay_type": "in vivo, human", "excerpt": "A person presents with Stage IV neuroblastoma. […] Upon examination, tumor mass is found reduced by about 50%."}, "[4]": {"test_system": "Stage V Alzheimer's disease", "test": "Alzheimer treatment, patient case (second Example 10)", "assay_type": "in vivo, human", "conditions": "5 mg/kg oral daily, chronically, six month period", "protocol": "A subject presents with Stage V Alzheimer's disease. The subject is treated daily with 5 mg/kg oral doses of N-(3-methyl-1,1-dioxo-1,4-thiazinan-4-yl)-1-[3,4,5-trimethoxy phenyl sulfonyl], chronically."}, "[5]": {"test_system": "Stage IV pancreatic cancer", "test": "Treatment of pancreatic cancer, patient case (Example 7)", "assay_type": "in vivo, human", "conditions": "10 mg/kg/day tablets every other day for 30 days (15 doses)", "protocol": "A subject presents with Stage IV pancreatic cancer. The subject is treated daily with 10 mg/kg/day of N-(3-methyl-1,1-dioxo-1,4-thiazinan-4-yl)-1-[1-phenyl, 1-acetic acid]methane by tablets every other day for 30 consecutive days (15 doses). Upon examination, cancer involvement is found reduced by about 20%."}, "[6]": {"test_system": "end stage liver cancer", "test": "Liver cancer treatment, patient case (Example 9)", "assay_type": "in vivo, human", "conditions": "10 mg/kg daily orally or IV for 48 days", "protocol": "A subject presents with end stage liver cancer refractory to all other treatments. The subject is treated daily with 10 mg/kg of N-(3-methyl-1,1-dioxo-1,4-thiazinan-4-yl)-1-[1-phenyl, 1-furan-2-yl] orally or IV for 48 days."}, "[7]": {"test_system": "Stage IV breast cancer", "test": "Treatment of breast cancer, patient case (Example 6)", "assay_type": "in vivo, human", "conditions": "10 mg/kg/day orally or IV daily for 15 consecutive days", "protocol": "A subject presents with Stage IV breast cancer and axillary lymph node involvement. The subject is treated with 10 mg/kg/day of N-(3-methyl-1,1-dioxo-1,4-thiazinan-4-yl)-1-[1-phenyl, 1-methanol]methane orally or IV daily for 15 consecutive days. Upon examination, cancer involvement is found reduced by about 20%."}, "[8]": {"test_system": "SMS-KCNR neuroblastoma cells", "test": "cells", "conditions": "Homo sapiens, 48 h, read-out: cell viability, mean value", "protocol": "SMS-KCNR neuroblastoma cells were incubated for 48 hours with increasing levels of either nifurtimox or RKS-2-62, and cytotoxicity was determined using the Calcein AM cell viability assay. […] SMSKCNR cells were plated in 48 wells plates and treated with 0-20 μg/mL of either RKS-2-62 or nifurtimox for 48 hours. Cell viability was assessed using Calcein AM assay."}, "[9]": {"test_system": "SMSKCNR cells", "test": "Reactive oxygen species, carboxylated DCF flow cytometry", "assay_type": "cell-based, human", "conditions": "90 minutes incubation, vs control", "protocol": "RKS-2-62 increases reactive oxygen species in neuroblastoma cells. SMSKCNR cells treated with RKS-2-62 were incubated with carboxyl-DCF. SMSKCNR cells were grown in T25 flasks and incubated in RKS-2-62 for 90 minutes prior to treatment with carboxylated DCF. Cells were collected and analyzed by flow cytometry. […] Control is the left hand peak in grey. RKS-2-62 is the right hand peak. Oxidation of DCF by reactive oxygen species (ROS) causes increased fluorescence, and a lower concentration of RKS-2-62 than of nifurtimox was required to achieve the same effect."}, "[10]": {"test": "Chloroform/water partition test", "assay_type": "physicochemical", "protocol": "In addition, RKS-2-26 is lipid soluble and likely to cross the blood brain barrier. […] Then 1 mL of distilled water was added and vortexed."}, "[11]": {"test_system": "DAOY medulloblastoma cells", "test": "Calcein AM cell viability assay, DAOY medulloblastoma cells", "assay_type": "cell-based", "conditions": "48 hours", "excerpt": "(§1) For the D283 cell line, viability after exposure to RKS was decreased compared to nifurtimox (P=0.008), with similar results for the DAOY cell line (P=0.026)."}, "[12]": {"test_system": "D283 medulloblastoma cells", "test": "Calcein AM cell viability assay, D283 medulloblastoma cells", "assay_type": "cell-based", "conditions": "48 hours", "excerpt": "as §1"}, "[13]": {"test_system": "SMSKCNR cells", "test": "Neuroblastoma xenograft mouse model, oral dosing in food pellets", "conditions": "3 weeks", "protocol": "Nude mice were injected subcutaneously in the flank with 10^7 SMSKCNR cells and tumors were allowed to grow for 7 days. Mice were then fed either control food pellets or pellets containing 50, 100, or 150 mg/kg/day of RKS-2-62 for 3 weeks (4 mice per group). Tumors were harvested and weighed."}},
  "data": [
    {"smiles": "CC1CS(=O)(=O)CCN1NC(=O)c1c(Cl)c2cc(Br)ccc2oc1=O", "note": "(stereo not shown)", "values": [
      {"measurement": "tumor growth upon examination", "setting": "[1]", "result": "no further tumor growth is noted"}
    ]},
    {"smiles": "COc1cc2cc(C=NN3CCS(=O)(=O)CC3C)c(=O)oc2cc1OC", "note": "(stereo not shown)", "values": [
      {"measurement": "cancer involvement upon examination", "setting": "[2]", "result": "no cancer involvement is found"}
    ]},
    {"smiles": "CC1CS(=O)(=O)CCN1NC(c1ccccc1)c1ccccc1", "note": "(stereo not shown) [N-(3-methyl-1,1-dioxo-1,4-thiazinan-4-yl)-1-[1,1-diphenyl]methane]", "values": [
      {"measurement": "tumor response", "setting": "[3]; 15 mg/kg/day orally or IV for 2 weeks", "result": "tumor stabilization"},
      {"measurement": "reduction of tumor mass", "setting": "[3]; with further addition of cyclophosphamide and topotecan, 8 weeks", "result": "about 50%"}
    ]},
    {"smiles": "COc1cc(S(=O)(=O)NN2CCS(=O)(=O)CC2C)cc(OC)c1OC", "note": "(stereo not shown) [N-(3-methyl-1,1-dioxo-1,4-thiazinan-4-yl)-1-[1-(3,4,5-trimethoxyphenylsulfonyl]]", "values": [
      {"measurement": "progression of the disease", "setting": "[4]", "result": "substantially no progression of the disease is noted"}
    ]},
    {"smiles": "CC1CS(=O)(=O)CCN1NC(CC(=O)O)c1ccccc1", "note": "(stereo not shown) [N-(3-methyl-1,1-dioxo-1,4-thiazinan-4-yl)-1-[1-phenyl, 1-acetic acid]methane]", "values": [
      {"measurement": "reduction of cancer involvement", "setting": "[5]", "result": "about 20%"}
    ]},
    {"smiles": "CC1CS(=O)(=O)CCN1N(c1ccccc1)c1ccco1", "note": "(stereo not shown) [N-(3-methyl-1,1-dioxo-1,4-thiazinan-4-yl)-1-[1-phenyl, 1-furan-2-yl]]", "values": [
      {"measurement": "liver cancer involvement upon examination", "setting": "[6]", "result": "no liver cancer involvement is found"}
    ]},
    {"smiles": "CC1CS(=O)(=O)CCN1NC(CO)c1ccccc1", "note": "(stereo not shown) [N-(3-methyl-1,1-dioxo-1,4-thiazinan-4-yl)-1-[1-phenyl, 1-methanol]methane]", "values": [
      {"measurement": "reduction of cancer involvement", "setting": "[7]", "result": "about 20%"}
    ]},
    {"smiles": "CC1CS(=O)(=O)CCN1N=Cc1c(Cl)c2cc(Br)ccc2oc1=O", "note": "(stereo not shown) [RKS-2-62]", "values": [
      {"measurement": "viability at 5 µg/mL", "setting": "[8]", "result": 51.9, "unit": "%"},
      {"measurement": "production of ROS (DCF fluorescence)", "setting": "[9]", "result": "increase in production of ROS"},
      {"measurement": "lipid solubility", "setting": "[10]", "result": "lipid soluble"},
      {"measurement": "distribution between chloroform layer and aqueous layer", "setting": "[10]; 10 μg/μL in chloroform, 1 mL distilled water added, vortexed", "result": "remained solely in the chloroform layer and not the aqueous layer"},
      {"measurement": "solubility in chloroform", "setting": "[10]; solution of 10 μg/μL", "result": "shown to dissolve in chloroform"},
      {"measurement": "growth inhibition compared with nifurtimox", "setting": "[11]; 0-10 μg/mL", "result": "inhibited the growth of both cell lines in a dose-dependent fashion and to a greater extent than nifurtimox"},
      {"measurement": "cytotoxicity at 10 µg/mL", "setting": "[11]; Homo sapiens, 10 μg/mL, read-out: decrease of viability", "result": "> 80", "unit": "%"},
      {"measurement": "growth inhibition compared with nifurtimox", "setting": "[12]; 0-10 μg/mL", "result": "inhibited the growth of both cell lines in a dose-dependent fashion and to a greater extent than nifurtimox"},
      {"measurement": "cytotoxicity at 10 µg/mL", "setting": "[12]; 10 μg/mL, read-out: decrease of viability", "result": "> 80", "unit": "%"},
      {"measurement": "decrease of tumor weight compared to the control group", "setting": "[13]; 50 mg/kg/day oral in food pellets", "result": "greater than 75%"},
      {"measurement": "decrease of tumor weight compared to the control group", "setting": "[13]; 100 mg/kg/day oral in food pellets", "result": "greater than 75%"},
      {"measurement": "decrease of tumor weight compared to the control group", "setting": "[13]; 150 mg/kg/day oral in food pellets", "result": "greater than 75%"},
      {"measurement": "tolerability compared with nifurtimox", "setting": "[13]; mice, oral", "result": "better tolerated in mice than nifurtimox"}
    ]},
    {"smiles": "CC1CS(=O)(=O)CCN1/N=C\\c1ccc([N+](=O)[O-])o1", "note": "(stereo not shown) [nifurtimox, reference compound]", "values": [
      {"measurement": "viability at 5 µg/mL", "setting": "[8]", "result": 88.4, "unit": "%"}
    ]}
  ]
}
